ChEMBL document CHEMBL1909046, “DrugMatrix in vitro pharmacology data”

Key:
[1] = target: T1, Muscarinic acetylcholine receptor M4 (Homo sapiens, UniProt P08173); assay type: cell membranes, CHO-K1, Membrane; conditions: cho-k1; also: in other assays of this panel Not Active means under 50% inhibition at 10 µM
T1 sequence (P08173 whole entry): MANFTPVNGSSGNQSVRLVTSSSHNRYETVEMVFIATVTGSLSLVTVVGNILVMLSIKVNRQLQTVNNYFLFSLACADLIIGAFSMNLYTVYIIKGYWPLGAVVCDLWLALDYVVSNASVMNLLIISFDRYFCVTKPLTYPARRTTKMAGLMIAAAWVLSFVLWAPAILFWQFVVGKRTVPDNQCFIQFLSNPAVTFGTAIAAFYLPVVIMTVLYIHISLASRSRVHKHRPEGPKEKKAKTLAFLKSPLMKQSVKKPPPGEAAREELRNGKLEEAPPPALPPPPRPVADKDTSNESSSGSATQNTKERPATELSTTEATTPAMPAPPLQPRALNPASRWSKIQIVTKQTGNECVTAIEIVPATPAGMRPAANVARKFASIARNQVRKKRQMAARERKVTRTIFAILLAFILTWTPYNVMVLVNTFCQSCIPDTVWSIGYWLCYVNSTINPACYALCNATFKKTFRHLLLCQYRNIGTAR

[2] = target: T2, Type-2 angiotensin II receptor (Homo sapiens, UniProt P50052); assay type: cell-based; conditions: cho-k1; also: in other assays of this panel Not Active means under 50% inhibition at 10 µM
T2 sequence (P50052 whole entry): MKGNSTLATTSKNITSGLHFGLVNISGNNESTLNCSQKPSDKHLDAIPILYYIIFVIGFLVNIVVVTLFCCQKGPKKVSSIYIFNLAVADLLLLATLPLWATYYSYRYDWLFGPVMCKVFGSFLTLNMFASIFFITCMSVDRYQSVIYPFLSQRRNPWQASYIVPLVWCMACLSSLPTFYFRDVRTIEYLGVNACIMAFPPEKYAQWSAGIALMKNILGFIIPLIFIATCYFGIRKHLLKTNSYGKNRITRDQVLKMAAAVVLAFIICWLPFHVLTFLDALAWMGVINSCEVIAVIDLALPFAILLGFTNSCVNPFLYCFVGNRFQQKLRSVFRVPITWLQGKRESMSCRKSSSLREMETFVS

Cytochrome P450 2C9 = Cytochrome P450 2C9 (Homo sapiens, UniProt P11712); conditions: bti-tn-5b1-4; also: in other assays of this panel Not Active means under 50% inhibition at 10 µM
Cytochrome P450 2C9, sequence (P11712 whole entry): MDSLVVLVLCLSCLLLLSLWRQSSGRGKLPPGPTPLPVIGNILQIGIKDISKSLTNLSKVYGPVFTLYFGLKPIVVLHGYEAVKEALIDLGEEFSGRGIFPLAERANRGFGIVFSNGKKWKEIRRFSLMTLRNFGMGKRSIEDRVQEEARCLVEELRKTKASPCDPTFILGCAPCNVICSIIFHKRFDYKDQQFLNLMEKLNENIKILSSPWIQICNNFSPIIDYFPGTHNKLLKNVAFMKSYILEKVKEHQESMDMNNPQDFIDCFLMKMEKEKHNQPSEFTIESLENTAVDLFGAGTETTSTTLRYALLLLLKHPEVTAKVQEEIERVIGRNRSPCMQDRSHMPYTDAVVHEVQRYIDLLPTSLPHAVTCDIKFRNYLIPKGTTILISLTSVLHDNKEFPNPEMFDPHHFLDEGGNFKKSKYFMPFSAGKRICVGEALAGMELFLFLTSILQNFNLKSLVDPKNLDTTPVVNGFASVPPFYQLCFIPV

[3] = DRUGMATRIX: Sigma2 radioligand binding (ligand: [3H] Ifenprodil); assay type: cell membranes, Rattus norvegicus, Wistar, Brain, Membrane; conditions: Not Active = under 50% inhibition at 10 µM
[4] = DRUGMATRIX: Phosphodiesterase PDE3 enzyme inhibition (substrate: [3H]cAMP + cAMP); assay type: tissue-based, Homo sapiens; conditions: platelet, Not Active = under 50% inhibition at 10 µM
Insulin receptor = Insulin receptor (Rattus norvegicus, UniProt P15127); assay type: cell membranes, Wistar, Liver, Membrane; also: in other assays of this panel Not Active means under 50% inhibition at 10 µM
Insulin receptor, sequence (P15127 27-759 limits assumed): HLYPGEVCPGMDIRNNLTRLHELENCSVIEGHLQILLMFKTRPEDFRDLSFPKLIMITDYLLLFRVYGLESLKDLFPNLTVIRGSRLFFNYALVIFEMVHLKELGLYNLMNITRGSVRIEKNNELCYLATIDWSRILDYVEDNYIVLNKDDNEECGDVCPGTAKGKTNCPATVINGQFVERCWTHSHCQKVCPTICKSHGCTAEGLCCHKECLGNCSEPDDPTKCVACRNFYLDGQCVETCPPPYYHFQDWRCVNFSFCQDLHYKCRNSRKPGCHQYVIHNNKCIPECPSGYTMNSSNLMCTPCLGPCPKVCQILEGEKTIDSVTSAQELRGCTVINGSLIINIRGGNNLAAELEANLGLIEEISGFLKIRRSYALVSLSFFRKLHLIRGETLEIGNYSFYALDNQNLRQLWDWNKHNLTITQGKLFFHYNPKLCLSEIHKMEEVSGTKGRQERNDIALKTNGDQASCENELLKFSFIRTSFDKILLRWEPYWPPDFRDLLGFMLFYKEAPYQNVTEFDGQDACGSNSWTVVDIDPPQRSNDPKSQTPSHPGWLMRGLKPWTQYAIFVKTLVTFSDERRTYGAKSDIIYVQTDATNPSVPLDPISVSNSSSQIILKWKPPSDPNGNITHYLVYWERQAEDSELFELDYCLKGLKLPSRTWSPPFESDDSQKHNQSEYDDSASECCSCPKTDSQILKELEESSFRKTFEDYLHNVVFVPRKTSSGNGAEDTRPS
Insulin receptor, sequence (P15127 764-1383 limits assumed): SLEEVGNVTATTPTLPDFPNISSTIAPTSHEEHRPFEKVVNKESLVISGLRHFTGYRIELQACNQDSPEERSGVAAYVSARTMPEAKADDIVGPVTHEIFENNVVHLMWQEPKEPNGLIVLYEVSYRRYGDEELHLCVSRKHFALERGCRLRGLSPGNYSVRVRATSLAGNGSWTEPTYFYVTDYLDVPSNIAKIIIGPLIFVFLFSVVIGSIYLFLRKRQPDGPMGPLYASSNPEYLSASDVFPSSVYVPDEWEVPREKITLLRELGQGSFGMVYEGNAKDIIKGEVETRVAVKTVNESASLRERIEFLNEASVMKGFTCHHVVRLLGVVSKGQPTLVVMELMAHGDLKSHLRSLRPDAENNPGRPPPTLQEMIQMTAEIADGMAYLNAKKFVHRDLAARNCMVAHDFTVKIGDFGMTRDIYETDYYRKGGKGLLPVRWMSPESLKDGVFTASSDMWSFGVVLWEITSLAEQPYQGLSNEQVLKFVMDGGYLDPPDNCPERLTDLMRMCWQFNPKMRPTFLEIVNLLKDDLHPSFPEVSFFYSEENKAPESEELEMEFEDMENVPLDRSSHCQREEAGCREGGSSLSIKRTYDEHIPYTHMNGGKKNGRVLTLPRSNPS

Compound	IC50 [1]	IC50 [2]	IC50 (Cytochrome P450 2C9)	Ki (Cytochrome P450 2C9)	IC50 [3]	Ki [3]	IC50 [4]	Ki [4]	IC50 (Insulin receptor)	IC50 ([4]; read-out: IC50)	IC50 ([3]; read-out: IC50)	Ki ([3]; read-out: Ki)	Ki [1]	Ki [2]	IC50 (Insulin receptor; read-out: IC50)	Ki (Insulin receptor; read-out: Ki)
Nc1nc(N)nc(NC2CC2)n1 [CYROMAZINE]	Not Active	Not Active	Not Active	Not Active	Not Active	Not Active	Not Active	Not Active	Not Active	–	–	–	–	–	–	–
CN(C(=O)CCCOc1ccc2[nH]c(=O)ccc2c1)C1CCCCC1 [CILOSTAMIDE]	Not Active	Not Active	Not Active	Not Active	Not Active	Not Active	–	–	Not Active	0.055 µM	–	–	–	–	–	–
CC(C)(Oc1ccc(C2CC2(Cl)Cl)cc1)C(=O)O (configuration not stated) [CIPROFIBRATE]	Not Active	Not Active	Not Active	Not Active	Not Active	Not Active	Not Active	Not Active	Not Active	–	–	–	–	–	–	–
CN1C[C@H](C(=O)N[C@]2(C)O[C@@]3(O)[C@@H]4CCCN4C(=O)[C@H](Cc4ccccc4)N3C2=O)C[C@@H]2c3cccc4[nH]cc(c34)C[C@H]21 [DIHYDROERGOTAMINE]	Not Active	Not Active	Not Active	Not Active	Not Active	Not Active	Not Active	Not Active	Not Active	–	–	–	–	–	–	–
CNC(=C[N+](=O)[O-])NCCSCc1csc(CN(C)C)n1 [NIZATIDINE]	Not Active	Not Active	Not Active	Not Active	Not Active	Not Active	Not Active	Not Active	Not Active	–	–	–	–	–	–	–
CC(=O)O[C@]1(C(C)=O)CC[C@H]2[C@@H]3C=C(Cl)C4=CC(=O)[C@@H]5C[C@@H]5[C@]4(C)[C@H]3CC[C@@]21C [CYPROTERONE ACETATE]	Not Active	Not Active	Not Active	Not Active	Not Active	Not Active	Not Active	Not Active	Not Active	–	–	–	–	–	–	–
CC(CCc1ccc(O)cc1)NCCc1ccc(O)c(O)c1 (configuration not stated) [DOBUTAMINE]	Not Active	Not Active	Not Active	Not Active	–	–	Not Active	Not Active	Not Active	–	2.6 µM	1.6 µM	–	–	–	–
Nc1nc(Cl)nc2c1ncn2[C@H]1C[C@H](O)[C@@H](CO)O1 [CLADRIBINE]	Not Active	Not Active	Not Active	Not Active	Not Active	Not Active	Not Active	Not Active	Not Active	–	–	–	–	–	–	–
Cc1cccc(Nc2cc(Cl)nc(SCC(=O)O)n2)c1C [PIRINIXIC ACID]	Not Active	Not Active	Not Active	Not Active	Not Active	Not Active	Not Active	Not Active	Not Active	–	–	–	–	–	–	–
INSULIN HUMAN	Not Active	Not Active	Not Active	Not Active	Not Active	Not Active	Not Active	Not Active	–	–	–	–	Not Active	Not Active	0.00193 µM	0.00182 µM
CCn1cc(C(=O)O)c(=O)c2cc(F)c(N3CCNCC3)nc21 [ENOXACIN]	Not Active	Not Active	Not Active	Not Active	Not Active	Not Active	Not Active	Not Active	Not Active	–	–	–	–	–	–	–
O=C(O)c1cc(=O)c2c(OCC(O)COc3cccc4oc(C(=O)O)cc(=O)c34)cccc2o1 [CROMOLYN]	Not Active	Not Active	Not Active	Not Active	Not Active	Not Active	Not Active	Not Active	Not Active	–	–	–	–	–	–	–
CC(=O)OCC(CCn1cnc2cnc(N)nc21)COC(C)=O [FAMCICLOVIR]	Not Active	Not Active	Not Active	Not Active	Not Active	Not Active	Not Active	Not Active	Not Active	–	–	–	–	–	–	–
O=P1(N(CCCl)CCCl)NCCCO1 (configuration not stated) [CYCLOPHOSPHAMIDE ANHYDROUS]	Not Active	Not Active	Not Active	Not Active	Not Active	Not Active	Not Active	Not Active	Not Active	–	–	–	–	–	–	–
O=c1cc(-c2ccccc2)oc2ccc3ccccc3c12 [BETA-NAPHTHOFLAVONE]	Not Active	Not Active	Not Active	Not Active	Not Active	Not Active	Not Active	Not Active	Not Active	–	–	–	–	–	–	–
CC(C)(Sc1cc(C(C)(C)C)c(O)c(C(C)(C)C)c1)Sc1cc(C(C)(C)C)c(O)c(C(C)(C)C)c1 [PROBUCOL]	Not Active	Not Active	Not Active	Not Active	Not Active	Not Active	Not Active	Not Active	Not Active	–	–	–	–	–	–	–
CO[C@@]1(NC(=O)CSCC#N)C(=O)N2C(C(=O)O)=C(CSc3nnnn3C)CS[C@@H]21 [CEFMETAZOLE]	Not Active	Not Active	Not Active	Not Active	Not Active	Not Active	Not Active	Not Active	Not Active	–	–	–	–	–	–	–
COc1cc(CNC(=O)CCCC/C=C/C(C)C)ccc1O [CAPSAICIN]	Not Active	Not Active	Not Active	Not Active	Not Active	Not Active	Not Active	Not Active	Not Active	–	–	–	–	–	–	–
CC(C)(C)c1ccc(S(=O)(=O)/C=C/C#N)cc1 [BAY-11-7085]	Not Active	Not Active	Not Active	Not Active	Not Active	Not Active	Not Active	Not Active	Not Active	–	–	–	–	–	–	–
CCOC(=O)[C@H](CCc1ccccc1)N[C@@H](C)C(=O)N1Cc2ccccc2C[C@H]1C(=O)O	Not Active	Not Active	Not Active	Not Active	Not Active	Not Active	Not Active	Not Active	Not Active	–	–	–	–	–	–	–
CC[C@H]1OC(=O)[C@H](C)[C@@H](O[C@H]2C[C@@](C)(OC)[C@@H](O)[C@H](C)O2)[C@H](C)[C@@H](O[C@@H]2O[C@H](C)C[C@H](N(C)C)[C@H]2O)[C@](C)(O)C[C@@H](C)CN(C)[C@H](C)[C@@H](O)[C@]1(C)O [AZITHROMYCIN]	Not Active	Not Active	Not Active	Not Active	Not Active	Not Active	Not Active	Not Active	Not Active	–	–	–	–	–	–	–
Cc1cccc(Nc2ccccc2C(=O)O)c1C [MEFENAMIC ACID]	Not Active	Not Active	Not Active	Not Active	Not Active	Not Active	Not Active	Not Active	Not Active	–	–	–	–	–	–	–
COC(=O)c1ccccc1O [METHYL SALICYLATE]	Not Active	Not Active	Not Active	Not Active	Not Active	Not Active	Not Active	Not Active	Not Active	–	–	–	–	–	–	–
CC[C@H](C)C(=O)O[C@H]1C[C@H](O)C=C2C=C[C@H](C)[C@H](CC[C@@H](O)C[C@@H](O)CC(=O)O)[C@H]21 [PRAVASTATIN]	Not Active	Not Active	Not Active	Not Active	Not Active	Not Active	Not Active	Not Active	Not Active	–	–	–	–	–	–	–
C[C@]12C/C(=C/O)C(=O)C[C@@H]1CC[C@@H]1[C@@H]2CC[C@@]2(C)[C@H]1CC[C@]2(C)O [OXYMETHOLONE]	Not Active	Not Active	Not Active	Not Active	Not Active	Not Active	Not Active	Not Active	Not Active	–	–	–	–	–	–	–
